Structures can show the parent of a compound that is named as a salt.
Experiments:
IRAK4 = target: T1, IRAK4 (Homo sapiens, UniProt Q9NWZ3); assay: Target protein degradation effect in K562 IRAK4-HiBiT cells (Nano-Glo HiBiT); assay type: cell-based; conditions: incubated 16 to 18 hours
T1 construct: expressed in transfected cells; host or cells: K562 IRAK4-HiBiT cells
T1 sequence (Q9NWZ3 1-460): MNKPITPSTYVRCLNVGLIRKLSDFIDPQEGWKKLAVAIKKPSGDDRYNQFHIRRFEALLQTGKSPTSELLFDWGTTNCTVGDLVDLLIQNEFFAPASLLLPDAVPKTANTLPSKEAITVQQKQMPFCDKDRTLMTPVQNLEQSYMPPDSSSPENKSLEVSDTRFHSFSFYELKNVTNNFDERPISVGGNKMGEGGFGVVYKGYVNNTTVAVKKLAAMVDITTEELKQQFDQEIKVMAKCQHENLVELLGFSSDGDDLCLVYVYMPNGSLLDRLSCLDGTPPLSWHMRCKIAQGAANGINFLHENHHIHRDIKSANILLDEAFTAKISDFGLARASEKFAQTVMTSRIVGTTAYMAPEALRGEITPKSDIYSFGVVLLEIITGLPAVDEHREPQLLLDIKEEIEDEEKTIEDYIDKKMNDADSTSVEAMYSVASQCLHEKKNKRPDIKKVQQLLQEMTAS
Method: Experimental purpose: In this experiment, the degradation effect of the test compound on the target protein IRAK4 in K562 IRAK4-HiBiT cells was detected.
• Cells: K562 IRAK4-HiBiT cells • Culture media: RPMI 1640+10% FBS+2 mM GlutaMax+1 mM sodium pyruvate+penicillin/streptomycin • Positive control: 1000 nM; negative control: 0.1% DMSO
• (1). The compound to be tested in powder form was dissolved in DMSO to 10 mM as a storage concentration, and 9 μL of the 10 mM compound to be tested was manually pipetted to column 1 and column 13 of an LDV plate using a pipette; • (2). 6 μL of DMSO was added to columns 2 to 12 and 14 to 24 using Multidrop Combi; [0688](3). the compound to be tested was 3-fold diluted (3 μL+6 μL) from columns 1 to 11 and 13 to 23 using Bravo; • (4). 25 nL of compound solution (columns 1 to 24 of the LDV plate) was transferred to an assay plate using Echo according to the plate layout; • (5). 25 nL of 1 mM positive control solution was transferred to the assay plate as a 100% degradation control (i.e., LC, HPE) and 25 nL of DMSO was transferred to the assay plate as a 0% control (i.e., HC, ZPE) using Echo.
• (1). The cell culture medium was discarded, and the cells were washed once with DPBS, digested with trypsin, and counted to prepare a cell suspension of […]; • (2). 25 µL/well of cell suspension was added to the assay plate containing the compound to be tested using Multidrop Combi at medium speed; • (3). the assay plate containing cells was returned to an incubator with 5% CO2 at 37° C. and incubated for 16 to 18 hours.
• (1). 25 µL/well of assay reagent (NanoGlo lysis buffer+substrate+LgBit protein) was added to the assay plate using Multidrop Combi at high speed, and the plate was shaken for 10 minutes; • (2). the plate was centrifuged at 2000 rpm for 1 minute to remove air bubbles; • (3). the plate was read on Envision using US Luminescence detection method.
The inhibition rate (IR) of the test compound was calculated using the following formula: IR (%)=(RLU vehicle control−RLU compound)/(RLU vehicle control−RLU positive control)×100%, and the vehicle control is the blank control. The inhibition rates of compounds at different concentrations were calculated in Excel, and then XLFit software was used to plot inhibition curves and calculate relevant parameters, including minimum inhibition rate, maximum inhibition rate, and DC50.

[1] = Pharmacokinetic evaluation in mice, experimental operation A (CD-1); assay type: in vivo; conditions: CD-1 mice; for bioavailability / clearance / Vd / half-life: male, mouse, plasma; for bioavailability: IV 1 mg/kg, PO 10 mg/kg, read-out: Bioavailability F; for Vd: read-out: Apparent volume of distribution; for half-life: read-out: Elimination half-life (converted)
Excerpt: In this study, CD-1 or C57BL/6N male mice were selected as test animals, and LC/MS/MS method was used to quantify plasma concentrations of the test compound intravenously injected or intragastrically administered to mice at different time points, so as to evaluate the pharmacokinetic profile of the test drug in mice.
CD-1 mice (male, 20 to 35 g, 7 to 10 weeks old, Beijing Vital River) or C57BL/6N mice (male, 20 to 30 g, 7 to 10 weeks old, Beijing Vital River)
A clarified solution or suspension of the test compound was injected into CD-1 mice (overnight fasting) via the tail vein (vehicle: 10% DMSO/10% Solutol/80% H2O), or intragastrically administered into CD-1 mice (overnight fasting). For intravenous injection, blood was collected from the saphenous vein at 0 h (pre-administration) and 0.083 h, 0.25 h, 0.5 h, 1 h, 2 h, 4 h, 8 h, and 24 h after administration, and placed in an anticoagulant tube added with EDTA-K2. The mixture was thoroughly vortexed and mixed, and centrifuged at 3200 g for 10 minutes at 4° C. to obtain plasma. For oral administration, blood was collected from the saphenous vein at 0.25 h, 0.5 h, 1 h, 2 h, 4 h, 8 h, and 24 h after administration, and placed in an anticoagulant tube added with EDTA-K2 (Jiangsu Kangjian Medical Apparatus Co., Ltd.). The mixture was thoroughly vortexed and mixed, and centrifuged at 3200 g for 10 minutes at 4° C. to obtain plasma. Plasma concentrations were determined by LC-MS/MS method, and relevant pharmacokinetic parameters were calculated using Phoenix WinNonlin™ Version 6.3 (Pharsight, Mountain View, CA) pharmacokinetic software with non-compartmental model linear-log trapezoidal method.

[2] = Intragastric administration 10 mg/kg

Row | SMILES | DC50 (IRAK4) | Maximum inhibition rate (IRAK4) | also measured
1 | O=C1CCC(c2noc3c(CC(=O)NC4CCN(C[C@H]5CC[C@H](n6cc(NC(=O)c7cnn8ccc(N9C[C@H]%10C[C@@H]9CO%10)nc78)c(C(F)F)n6)CC5)CC4)cccc23)C(=O)N1 (stereo partly drawn) [Formate of WX023] | 2.55 nM | 103.01% | 
2 | O=C1CCC(c2coc3c(NC(=O)CN4CCN(C[C@H]5CC[C@H](n6cc(NC(=O)c7cnn8ccc(N9C[C@H]%10C[C@@H]9CO%10)nc78)c(C(F)F)n6)CC5)CC4)cccc23)C(=O)N1 (stereo partly drawn) [Hydrochloride of WX006] | 12.9 nM | 97.11% | Area under the drug-time curve (0-inf) [1, 2]: 7.73 µM·h; Peak concentration [1, 2]: 1.73 µM; Time to peak concentration [1, 2]: 1.0 h; Area under the drug-time curve (0-inf) ([1]; Intravenous injection 1 mg/kg): 1.18 µM·h; bioavailability [1]: 65.6%; clearance ([1]; Intravenous injection 1 mg/kg): 16.8 mL/min/kg; Vd ([1]; Intravenous injection 1 mg/kg): 1.47 L/kg; half-life ([1]; Intravenous injection 1 mg/kg): 1.03 h
3 | O=C1CCC(c2coc3c(C#CCOC4CCN(C[C@H]5CC[C@H](n6cc(NC(=O)c7cnn8ccc(N9C[C@H]%10C[C@@H]9CO%10)nc78)c(C(F)F)n6)CC5)CC4)cccc23)C(=O)N1 (stereo partly drawn) [Hydrochloride of WX003] | 25.5 nM | 100.06% | Area under the drug-time curve (0-inf) [1, 2]: 4.83 µM·h; Peak concentration [1, 2]: 0.61 µM; Time to peak concentration [1, 2]: 4.0 h; Area under the drug-time curve (0-inf) ([1]; Intravenous injection 1 mg/kg): 1.72 µM·h; bioavailability [1]: 28.2%; clearance ([1]; Intravenous injection 1 mg/kg): 11.7 mL/min/kg; Vd ([1]; Intravenous injection 1 mg/kg): 1.71 L/kg; half-life ([1]; Intravenous injection 1 mg/kg): 1.74 h
4 | O=C1CCC(c2noc3c(CCCN4CCN(C[C@H]5CC[C@H](n6cc(NC(=O)c7cnn8ccc(N9C[C@H]%10C[C@@H]9CO%10)nc78)c(C(F)F)n6)CC5)CC4)cccc23)C(=O)N1 (stereo partly drawn) [Hydrochloride of WX020] | 5.43 nM | 100.80% | 
5 | O=C1CCC(c2noc3c(NC(=O)C(F)(F)C4CCN(C[C@H]5CC[C@H](n6cc(NC(=O)c7cnn8ccc(N9C[C@H]%10C[C@@H]9CO%10)nc78)c(C(F)F)n6)CC5)CC4)cccc23)C(=O)N1 (stereo partly drawn) [Hydrochloride of WX017] | 7.02 nM | 115.78% | 
6 | O=C1CCC(c2noc3c(NC(=O)CN4CCN(C[C@H]5CC[C@H](n6cc(NC(=O)c7cnn8ccc(N9CC%10CCC(C9)O%10)nc78)c(C(F)F)n6)CC5)CC4)cccc23)C(=O)N1 (stereo partly drawn) [Formate of WX018] | 9.11 nM | 97.79% | 
7 | O=C1CCC(c2coc3ccc4c(NC(=O)CN5CCN(C[C@H]6CC[C@H](n7cc(NC(=O)c8cnn9ccc(N%10C[C@H]%11C[C@@H]%10CO%11)nc89)c(C(F)F)n7)CC6)CC5)cccc4c23)C(=O)N1 (stereo partly drawn) [Hydrochloride of WX010] | 6.54 nM | 74.90% | 
8 | O=C1CCC(c2noc3ccc4c(NC(=O)CN5CCN(C[C@H]6CC[C@H](n7cc(NC(=O)c8cnn9ccc(N%10C[C@H]%11C[C@@H]%10CO%11)nc89)c(C(F)F)n7)CC6)CC5)cccc4c23)C(=O)N1 (stereo partly drawn) [Hydrochloride of WX014] | 4.29 nM | 85.62% | 

Further lines, with some results ahead:

Row | DC50 (IRAK4) | Maximum inhibition rate (IRAK4) | SMILES | also measured
9 | 24.3 nM | 56.72% | O=C1CCC(c2coc3cc(NC(=O)CN4CCN(C[C@H]5CC[C@H](n6cc(NC(=O)c7cnn8ccc(N9C[C@H]%10C[C@@H]9CO%10)nc78)c(C(F)F)n6)CC5)CC4)ccc23)C(=O)N1 (stereo partly drawn) [Hydrochloride of WX002] | 
10 | 7.14 nM | 103.04% | O=C1CCC(c2noc3c(CCCOC4CCN(C[C@H]5CC[C@H](n6cc(NC(=O)c7cnn8ccc(N9C[C@H]%10C[C@@H]9CO%10)nc78)c(C(F)F)n6)CC5)CC4)cccc23)C(=O)N1 (stereo partly drawn) [Hydrochloride of WX022] | 
11 | 2.59 nM | 102.77% | O=C1CCC(c2noc3c(NC(=O)CN4CCC(CN5CCC(n6cc(NC(=O)c7cnn8ccc(N9C[C@H]%10C[C@@H]9CO%10)nc78)c(C(F)F)n6)CC5)CC4)cccc23)C(=O)N1 (stereo partly drawn) [Hydrochloride of WX021] | 
12 | 1.37 nM | 109.35% | O=C1CCC(c2noc3c(NC(=O)CN4CCC(O[C@H]5CC[C@H](n6cc(NC(=O)c7cnn8ccc(N9C[C@H]%10C[C@@H]9CO%10)nc78)c(C(F)F)n6)CC5)CC4)cccc23)C(=O)N1 (stereo partly drawn) [WX024] | 
13 | 34.2 nM | 112.11% | O=C1CCC(c2coc3c(NC(=O)C(F)(F)C4CCN(C[C@H]5CC[C@H](n6cc(NC(=O)c7cnn8ccc(N9C[C@H]%10C[C@@H]9CO%10)nc78)c(C(F)F)n6)CC5)CC4)cccc23)C(=O)N1 (stereo partly drawn) [Hydrochloride of WX016] | 
